Experimental data taken from the supplement of paper PMC8671470.
± gives the standard deviation of the averaged measurements.

What was measured:
Details in all cases: 72 h
HL-60 [1] = test: area under dose-response curve (viability, 1 nM-10 uM) (fraction (0-1)); higher = more sensitive
Outline: (§1)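 HL-60 cells in RPMI 1640 with 10% FBS were rescreened against the full library on 384-well plates at five tenfold concentrations, 1–10,000 nM, in duplicate. Each screen was run with DMSO or 100 nM of one of three metabolic inhibitors, for 72 h at 37 °C, 5% CO2. Viability was read by CellTiter-Glo and normalised to DMSO and 10 μM proteasome-inhibitor wells. Where given, area under the curve came from four-parameter log-logistic fits (drc, PharmacoGx).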

ML-2 [2] = test: cell viability (% survival relative to DMSO control, bortezomib = 0%); higher = less cytotoxic
Outline: (§2)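 Fifteen myeloid leukaemia cell lines (10 AML, 5 CML) were seeded at a density titrated to the linear growth range into 384-well plates pre-printed with compounds at 1, 10, 100, 1000 or 10000 nM in duplicate. Plates were incubated for 72 h at 37 °C with 5% CO2. Viability was then read by CellTiter-Glo luminescence. Each value is percent survival averaged over the duplicates, with vehicle set to 100% and a 10 µM positive control to 0%.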

MV4-11 [3] = test: as above
Outline: as §2

MOLM-13 [4] = test: as above
Outline: as §2

HEL [5] = test: as above
Outline: as §2

LAMA-84 [6] = test: as above
Outline: as §2

K-562 [7] = test: as above
Outline: as §2

KG-1 [8] = test: as above
Outline: as §2

KCL-22 [9] = test: as above
Outline: as §2

HL-60 [10] = test: as above
Outline: as §2

BV-173 [11] = test: as above
Outline: as §2

SHI-1 [12] = test: as above
Outline: as §2

HL-60 [13] = test: cell viability (% survival relative to DMSO control); higher = less cytotoxic
Outline: as §1

ML-2 [14] = system: ML-2
Outline: (§3)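 Fifteen myeloid leukaemia lines in RPMI 1640 were treated for 72 h at 37 °C and 5% CO2 with five tenfold doses from 1 to 10,000 nM, in duplicate. ATP luminescence was normalised to vehicle and to a positive control at 10 µM, then fitted with a four-parameter log-logistic model. The IC50 came from these fits.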

MV4-11 [15] = system: MV4-11
Outline: as §3

MOLM-13 [16] = system: MOLM-13
Outline: as §3

HEL [17] = system: HEL
Outline: as §3

KU-812 = system: KU-812
Outline: as §3

LAMA-84 [18] = system: LAMA-84
Outline: as §3

K-562 [19] = system: K-562
Outline: as §3

Mono-Mac-6 = system: Mono-Mac-6
Outline: as §3

KG-1 [20] = system: KG-1
Outline: as §3

NOMO-1 = system: NOMO-1
Outline: as §3

KCL-22 [21] = system: KCL-22
Outline: as §3

HL-60 [22] = system: HL-60
Outline: as §3

BV-173 [23] = system: BV-173
Outline: as §3

SHI-1 [24] = system: SHI-1
Outline: as §3

THP-1 = system: THP-1
Outline: as §3

CN1CC(=O)N2[C@H](c3ccc4c(c3)OCO4)c3[nH]c4ccccc4c3C[C@@H]2C1=O [Tadalafil]
Details	area under dose-response curve, co-treatment: AZD3965 100 nM	area under dose-response curve, co-treatment: DMSO vehicle	area under dose-response curve, co-treatment: GSK2194069 100 nM	area under dose-response curve, co-treatment: pictilisib 100 nM	cell viability, 1 nM [%]	cell viability, 10 nM [%]	cell viability, 100 nM [%]	cell viability, 1000 nM [%]	cell viability, 10000 nM [%]
BV-173 [11]	–	–	–	–	95.5	87	89.6	96.8	88.3
HEL [5]	–	–	–	–	103	77.5	93.1	98	94.7
HL-60 [1]	< 0.0301	< 0.0301	< 0.0301	< 0.0301	–	–	–	–	–
HL-60 [10]	–	–	–	–	106	75.2	107	72.9	117
K-562 [7]	–	–	–	–	108	105	90.6	96.4	91
KCL-22 [9]	–	–	–	–	103	89.2	92	101	81.7
KG-1 [8]	–	–	–	–	107	98.4	99.8	103	99.4
LAMA-84 [6]	–	–	–	–	101	97.9	96.8	102	103
ML-2 [2]	–	–	–	–	95.6	94.1	92	101	94.9
MOLM-13 [4]	–	–	–	–	106	85.3	98.4	97.9	73.3
MV4-11 [3]	–	–	–	–	100	86.7	95.3	102	92.6
SHI-1 [12]	–	–	–	–	109	102	98.9	97.8	88.3

cell viability [%], HL-60 [13]
Details	0.001 µM	0.01 µM	0.1 µM	1 µM	10 µM
co-treatment: AZD3965 100 nM	104 ± 3.4	105.1 ± 0.41	97.6 ± 2.9	104 ± 1.3	109 ± 1.1
co-treatment: DMSO vehicle	100.5 ± 0.71	103 ± 3.7	98 ± 8.3	100 ± 1.4	112 ± 6.6
co-treatment: GSK2194069 100 nM	101.9 ± 0.6	106 ± 1.3	102 ± 1.4	105 ± 1.2	95.2 ± 2.1
co-treatment: pictilisib 100 nM	99.6 ± 3	94.8 ± 7.5	96.9 ± 3.5	93.4 ± 7.5	89.9 ± 8.3

Details	IC50 (cell viability) [µM]
BV-173 [23]	> 10
HEL [17]	> 10
HL-60 [22]	> 10
K-562 [19]	> 10
KCL-22 [21]	> 10
KG-1 [20]	> 10
KU-812	> 10
LAMA-84 [18]	> 10
ML-2 [14]	> 10
MOLM-13 [16]	> 10
MV4-11 [15]	> 10
Mono-Mac-6	> 10
NOMO-1	> 10
SHI-1 [24]	> 10
THP-1	> 10

Cl.NC1=CCCN1Cc1nc(O)nc(O)c1Cl [Tipiracil]
Details	area under dose-response curve, co-treatment: AZD3965 100 nM	area under dose-response curve, co-treatment: DMSO vehicle	area under dose-response curve, co-treatment: GSK2194069 100 nM	area under dose-response curve, co-treatment: pictilisib 100 nM	cell viability, 1 nM [%]	cell viability, 10 nM [%]	cell viability, 100 nM [%]	cell viability, 1000 nM [%]	cell viability, 10000 nM [%]
BV-173 [11]	–	–	–	–	108	95.1	97.9	99.5	106
HEL [5]	–	–	–	–	122	102	112	111	103
HL-60 [1]	< 0.0301	< 0.0301	< 0.0301	< 0.0301	–	–	–	–	–
HL-60 [10]	–	–	–	–	98.8	97.2	127	130	119
K-562 [7]	–	–	–	–	106	99.8	105	115	106
KCL-22 [9]	–	–	–	–	115	90.2	105	114	90.8
KG-1 [8]	–	–	–	–	98.2	95.1	111	107	111
LAMA-84 [6]	–	–	–	–	115	94.8	98.7	110	102
ML-2 [2]	–	–	–	–	108	92.7	114	105	104
MOLM-13 [4]	–	–	–	–	104	96.3	122	121	93.6
MV4-11 [3]	–	–	–	–	107	105	109	104	106
SHI-1 [12]	–	–	–	–	107	106	125	113	116

cell viability [%], HL-60 [13]
Details	0.001 µM	0.01 µM	0.1 µM	1 µM	10 µM
co-treatment: AZD3965 100 nM	98.3 ± 4.6	102 ± 3.3	99.7 ± 1.8	101 ± 1.4	99.5 ± 5.9
co-treatment: DMSO vehicle	97.2 ± 11	94.3 ± 3.1	102 ± 7.2	99.34 ± 0.1	100.1 ± 0.34
co-treatment: GSK2194069 100 nM	98.7 ± 1.1	97.9 ± 6.2	97.8 ± 1.5	98.6 ± 4.8	88 ± 10
co-treatment: pictilisib 100 nM	93 ± 6.2	100 ± 9.1	93.7 ± 2	97 ± 1.6	86.7 ± 19

Details	IC50 (cell viability) [µM]
BV-173 [23]	> 10
HEL [17]	> 10
HL-60 [22]	> 10
K-562 [19]	> 10
KCL-22 [21]	> 10
KG-1 [20]	> 10
KU-812	> 10
LAMA-84 [18]	> 10
ML-2 [14]	> 10
MOLM-13 [16]	> 10
MV4-11 [15]	> 10
Mono-Mac-6	> 10
NOMO-1	> 10
SHI-1 [24]	> 10
THP-1	> 10
